Assay results published in US20210045385A1, “PYRIDAZINONE-SUBSTITUTED KETOXIMES AS HERBICIDES” (FMC Corporation, priority 2018, published 2021).

Assays:
Assay type in all cases: in vivo
[1] = system: galium (catchweed bedstraw, Galium aparine); assay: Test C postemergence, visual plant response rating
Procedure, shortened: (§1)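 Compounds in a non-phytotoxic solvent with surfactant were applied as a directed soil spray preemergence or to 2–10 cm, one- to two-leaf plants postemergence, in loam–sand soil. After about 10 d in a greenhouse, injury was visually rated against untreated controls on a 0–100 scale (100 = complete control).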

kochia (Bassia scoparia) [2] = assay: Test C postemergence, visual plant response rating
Procedure, shortened: as §1

[3] = system: barnyardgrass (Echinochloa crus-galli); assay: Test C postemergence, visual plant response rating
Procedure, shortened: as §1

[4] = system: wheat (Triticum aestivum); assay: Test C postemergence, visual plant response rating
Procedure, shortened: as §1

[5] = system: Italian ryegrass (Lolium mutiflorum); assay: Test C postemergence, visual plant response rating
Procedure, shortened: as §1

[6] = system: foxtail, giant (giant foxtail, Setaria faberi); assay: Test C postemergence, visual plant response rating
Procedure, shortened: as §1

[7] = system: pigweed (Amaranthus retroflexus); assay: Test C postemergence, visual plant response rating
Procedure, shortened: as §1

[8] = system: ragweed (common ragweed, Ambrosia artemisiifolia); assay: Test C postemergence, visual plant response rating
Procedure, shortened: as §1

corn (Zea mays) = assay: Test C postemergence, visual plant response rating
Procedure, shortened: as §1

[9] = system: blackgrass (Alopecurus myosuroides); assay: Test C postemergence, visual plant response rating
Procedure, shortened: as §1

[10] = system: barnyardgrass (Echinochloa crus-galli); assay: Test D flooded paddy test, visual plant response rating; conditions: 250 g ai/ha, scale 0 to 100 (0 no effect, 100 complete control), 13 to 15 d
Procedure, shortened: (§2)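 2-leaf plants, flooded 3 cm, cpd into paddy water; greenhouse 13–15 d; visual rating vs controls, 0 = no effect, 100 = complete control; dash = no result.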

[11] = system: sedge umbrella (small-flower umbrella sedge, Cyperus difformis); assay: as above; conditions: 250 g ai/ha, scale 0 to 100 (0 no effect, 100 complete control), 13 to 15 d
Procedure, shortened: as §2

rice (Oryza sativa) = assay: as above; conditions: 250 g ai/ha, scale 0 to 100 (0 no effect, 100 complete control), 13 to 15 d
Procedure, shortened: as §2

[12] = system: duck salad (Heteranthera limosa); assay: as above; conditions: 250 g ai/ha, scale 0 to 100 (0 no effect, 100 complete control), 13 to 15 d
Procedure, shortened: as §2

kochia (Bassia scoparia) [13] = assay: Test C preemergence, visual plant response rating; conditions: Test C, 0 is no effect, 100 is complete control
Procedure, shortened: as §1

[14] = system: barnyardgrass (Echinochloa crus-galli); assay: Test C preemergence, visual plant response rating; conditions: Test C, 0 is no effect, 100 is complete control
Procedure, shortened: as §1

[15] = system: Italian ryegrass (Lolium mutiflorum); assay: Test C preemergence, visual plant response rating; conditions: Test C, 0 is no effect, 100 is complete control
Procedure, shortened: as §1

[16] = system: foxtail, giant (giant foxtail, Setaria faberi); assay: Test C preemergence, visual plant response rating; conditions: Test C, 0 is no effect, 100 is complete control
Procedure, shortened: as §1

[17] = system: pigweed (Amaranthus retroflexus); assay: Test C preemergence, visual plant response rating; conditions: Test C, 0 is no effect, 100 is complete control
Procedure, shortened: as §1

[18] = system: ragweed (common ragweed, Ambrosia artemisiifolia); assay: Test C preemergence, visual plant response rating; conditions: Test C, 0 is no effect, 100 is complete control
Procedure, shortened: as §1

[19] = Test C, postemergence, 125 g ai/ha

Compound	Galium plant response rating (0 to 100 scale) ([1]; Postemergence, 31 g ai/ha)	Galium plant response rating (0 to 100 scale) [1, 19]	Kochia plant response rating (0 to 100 scale) (kochia (Bassia scoparia) [2]; Postemergence, 31 g ai/ha)	Kochia plant response rating (0 to 100 scale) (kochia (Bassia scoparia) [2]; [19])	Barnyardgrass plant response rating (0 to 100 scale) ([3]; Postemergence, 31 g ai/ha)	Barnyardgrass plant response rating (0 to 100 scale) [3, 19]	Wheat plant response rating (0 to 100 scale) ([4]; Postemergence, 31 g ai/ha)	Wheat plant response rating (0 to 100 scale) [4, 19]	Ryegrass, Italian plant response rating (0 to 100 scale) ([5]; Postemergence, 31 g ai/ha)	Ryegrass, Italian plant response rating (0 to 100 scale) [5, 19]	Foxtail, Giant plant response rating (0 to 100 scale) ([6]; Postemergence, 31 g ai/ha)	Foxtail, Giant plant response rating (0 to 100 scale) [6, 19]	Pigweed plant response rating (0 to 100 scale) ([7]; Postemergence, 31 g ai/ha)	Pigweed plant response rating (0 to 100 scale) [7, 19]	Ragweed plant response rating (0 to 100 scale) ([8]; Postemergence, 31 g ai/ha)	Ragweed plant response rating (0 to 100 scale) [8, 19]	Corn plant response rating (0 to 100 scale) (corn (Zea mays); Postemergence, 31 g ai/ha)	Corn plant response rating (0 to 100 scale) (corn (Zea mays); [19])	Blackgrass plant response rating (0 to 100 scale) ([9]; Postemergence, 31 g ai/ha)	Blackgrass plant response rating (0 to 100 scale) [9, 19]	further results
Cc1nn(C)c(=O)c(C(=NOCC2CC2)c2cc(Cl)cc(Cl)c2Cl)c1O [Compound 293]	100	100	0	30	20	50	40	70	100	100	40	80	20	40	100	100	0	10	0	0	Plant response rating, Barnyardgrass (Flood) [10]: 0; Plant response rating, Sedge, Umbrella (Flood) [11]: 0; Plant response rating, Rice (Flood) (rice (Oryza sativa)): 0; Plant response rating, Ducksalad (Flood) [12]: 0; Kochia plant response rating (0 to 100 scale) (kochia (Bassia scoparia) [13]; 31 g ai/ha): 0; Kochia plant response rating (0 to 100 scale) (kochia (Bassia scoparia) [13]; 125 g ai/ha): 0; Barnyardgrass plant response rating (0 to 100 scale) ([14]; 31 g ai/ha): 0; Barnyardgrass plant response rating (0 to 100 scale) ([14]; 125 g ai/ha): 0; Ryegrass, Italian plant response rating (0 to 100 scale) ([15]; 31 g ai/ha): 30; Ryegrass, Italian plant response rating (0 to 100 scale) ([15]; 125 g ai/ha): 100; Foxtail, Giant plant response rating (0 to 100 scale) ([16]; 31 g ai/ha): 90; Foxtail, Giant plant response rating (0 to 100 scale) ([16]; 125 g ai/ha): 100; Pigweed plant response rating (0 to 100 scale) ([17]; 31 g ai/ha): 0; Pigweed plant response rating (0 to 100 scale) ([17]; 125 g ai/ha): 70; Ragweed plant response rating (0 to 100 scale) ([18]; 31 g ai/ha): 40; Ragweed plant response rating (0 to 100 scale) ([18]; 125 g ai/ha): 100
CO/N=C(\c1ccc(Cl)c(Cl)c1)c1c(O)c(C)nn(C)c1=O [Compound 217]	40	80	30	60	0	20	0	0	0	0	0	0	10	20	0	20	0	0	0	0	Plant response rating, Barnyardgrass (Flood) [10]: 0; Plant response rating, Sedge, Umbrella (Flood) [11]: 0; Plant response rating, Rice (Flood) (rice (Oryza sativa)): 0; Plant response rating, Ducksalad (Flood) [12]: 0; Kochia plant response rating (0 to 100 scale) (kochia (Bassia scoparia) [13]; 31 g ai/ha): 0; Kochia plant response rating (0 to 100 scale) (kochia (Bassia scoparia) [13]; 125 g ai/ha): 20; Barnyardgrass plant response rating (0 to 100 scale) ([14]; 31 g ai/ha): 0; Barnyardgrass plant response rating (0 to 100 scale) ([14]; 125 g ai/ha): 0; Ryegrass, Italian plant response rating (0 to 100 scale) ([15]; 31 g ai/ha): 0; Ryegrass, Italian plant response rating (0 to 100 scale) ([15]; 125 g ai/ha): 0; Foxtail, Giant plant response rating (0 to 100 scale) ([16]; 31 g ai/ha): 0; Foxtail, Giant plant response rating (0 to 100 scale) ([16]; 125 g ai/ha): 0; Pigweed plant response rating (0 to 100 scale) ([17]; 31 g ai/ha): 0; Pigweed plant response rating (0 to 100 scale) ([17]; 125 g ai/ha): 0; Ragweed plant response rating (0 to 100 scale) ([18]; 31 g ai/ha): 0; Ragweed plant response rating (0 to 100 scale) ([18]; 125 g ai/ha): 0
C#CCO/N=C(\c1cc(Cl)cc(Br)c1)c1c(O)c(C)nn(C)c1=O [Compound 292]	100	100	60	100	30	70	60	100	100	100	60	100	60	90	100	100	0	40	0	80	Plant response rating, Barnyardgrass (Flood) [10]: 0; Plant response rating, Sedge, Umbrella (Flood) [11]: 55; Plant response rating, Rice (Flood) (rice (Oryza sativa)): 0; Plant response rating, Ducksalad (Flood) [12]: 45; Kochia plant response rating (0 to 100 scale) (kochia (Bassia scoparia) [13]; 31 g ai/ha): 30; Kochia plant response rating (0 to 100 scale) (kochia (Bassia scoparia) [13]; 125 g ai/ha): 100; Barnyardgrass plant response rating (0 to 100 scale) ([14]; 31 g ai/ha): 60; Barnyardgrass plant response rating (0 to 100 scale) ([14]; 125 g ai/ha): 100; Ryegrass, Italian plant response rating (0 to 100 scale) ([15]; 31 g ai/ha): 80; Ryegrass, Italian plant response rating (0 to 100 scale) ([15]; 125 g ai/ha): 100; Foxtail, Giant plant response rating (0 to 100 scale) ([16]; 31 g ai/ha): 70; Foxtail, Giant plant response rating (0 to 100 scale) ([16]; 125 g ai/ha): 100; Pigweed plant response rating (0 to 100 scale) ([17]; 31 g ai/ha): 50; Pigweed plant response rating (0 to 100 scale) ([17]; 125 g ai/ha): 100; Ragweed plant response rating (0 to 100 scale) ([18]; 31 g ai/ha): 90; Ragweed plant response rating (0 to 100 scale) ([18]; 125 g ai/ha): 100
C#CCON=C(c1cccc(OC)c1)c1c(O)c(C)nn(C)c1=O [Compound 203]	30	30	20	50	0	20	0	0	30	30	0	30	10	20	0	10	0	0	0	0	Plant response rating, Barnyardgrass (Flood) [10]: 0; Plant response rating, Sedge, Umbrella (Flood) [11]: 0; Plant response rating, Rice (Flood) (rice (Oryza sativa)): 0; Plant response rating, Ducksalad (Flood) [12]: 0; Kochia plant response rating (0 to 100 scale) (kochia (Bassia scoparia) [13]; 31 g ai/ha): 0; Kochia plant response rating (0 to 100 scale) (kochia (Bassia scoparia) [13]; 125 g ai/ha): 0; Barnyardgrass plant response rating (0 to 100 scale) ([14]; 31 g ai/ha): 0; Barnyardgrass plant response rating (0 to 100 scale) ([14]; 125 g ai/ha): 0; Ryegrass, Italian plant response rating (0 to 100 scale) ([15]; 31 g ai/ha): 0; Ryegrass, Italian plant response rating (0 to 100 scale) ([15]; 125 g ai/ha): 0; Foxtail, Giant plant response rating (0 to 100 scale) ([16]; 31 g ai/ha): 0; Foxtail, Giant plant response rating (0 to 100 scale) ([16]; 125 g ai/ha): 10; Pigweed plant response rating (0 to 100 scale) ([17]; 31 g ai/ha): 0; Pigweed plant response rating (0 to 100 scale) ([17]; 125 g ai/ha): 0; Ragweed plant response rating (0 to 100 scale) ([18]; 31 g ai/ha): 0; Ragweed plant response rating (0 to 100 scale) ([18]; 125 g ai/ha): 0
